In patent publication US7371742B2, “Porphyrin derivatives for photodynamic therapy” (Institut Curie, priority 2001, dated 2008):
Where two headings read alike, the source gives them in different places.

Key:
[1] = tested on: human colic adenocarcinoma cell line HT29; experiment: HT29 cell survival (MTT assay) after 24 h incubation, with or without light irradiation; settings: for Photocytotoxicity HT 29, concentration giving 50%: 50% effect, with light; for cytotoxic for HT29 (in words): without light, remark of the inventors
Description: HT29 cells were cultivated in Dulbecco's MEM supplemented with 10% fetal calf serum (FCS). Cells from log-phase culture were seeded in 24-microwell plates (1 mL-5×10^4 cells/well) and kept at 37° C. in a water-jacketed incubator for 2 days under an air/CO2 atmosphere (5% CO2). Tested compounds, in DMSO solution, were added under the minimum volume (5 μL) to reach a concentration ranging from 0.1 to 10 μg/mL. Controls cells received 5 μL of DMSO free of dye. Plates were incubated 24 h, then medium was removed and the cells were washed twice with phosphate buffered saline (PBS) before addition of fresh medium free of drug and irradiation with visible light using a home made “light box” giving a fluence of 3.8 mW/cm^2 on the whole visible spectrum. Irradiation with red light was carried out using the same device fitted with an orange filter (0% T at 520 nm and 80% T at 590 nm) leading to a fluence of 2 mW/cm^2.
Plates were reincubated for 3 days before evaluation of the cell survival using the MTT assay (T. Mosmann, “Rapid calorimetric assay for cellular growth and survival. Application to proliferation assays”. J. Immunol. Methods 65,55-63,1983) using 30 min incubation with 100 μg well of 3-[4,5-dimethylthiazol-2-yl]-2,5-diphenyl tetrazolium bromide (MTT, Sigma). After removal of the medium, formazan crystals were taken up with 100 μL of DMSO and absorbance at 540 ni was measured with a Bio-Rad microplate reader (model 450); survival was expressed as % of untreated controls.

L-1210 cells = experiment: Cytotoxicity L-1210 (no light), cytostatic activity; assay type: cell-based, human; settings: no light; for Cytotoxicity L-1210 (no light), concentration giving 50%: 50% effect
Source text: Column L1210 corresponds to the cytostatic activity.

[2] = tested on: RBY-79 (indifferently named Y-79) cells; experiment: RBY-79 (Y79) cell cytotoxicity / photocytotoxicity; settings: for Photocytotoxicity RBY-79, concentration giving 50%: 50% effect, with light; for cytotoxic for Y79 (in words): without light, remark of the inventors
Source text: Columns HT29 and Y79 (═RBY79), without light, correspond to the cytotoxic activity.

[3] = read-out: HT 29 IC50 (μM) with 2J/cm^2, irradiation with filter (0% T at 520 nm, 80% T at 590 nm), 3.5 mW/cm^2, 10 min
[4] = read-out: HT 29 IC50 (μM) without light, without light (cytotoxic activity)
[5] = read-out: Y79 IC50 (μM) With 2J/cm^2, irradiation with filter (0% T at 520 nm, 80% T at 590 nm), 3.5 mW/cm^2, 10 min
[6] = read-out: Y79 IC50 (μM) without light, without light (cytotoxic activity)

Compound | IC50 [1, 3] [µM] | IC50 [1, 4] [µM] | IC50 [2, 5] [µM] | IC50 [2, 6] [µM] | further results
OC[C@H]1O[C@@H](Sc2c(F)c(F)c(-c3c4nc(c(-c5c(F)c(F)c(S[C@@H]6O[C@H](CO)[C@@H](O)[C@H](O)[C@H]6O)c(F)c5F)c5ccc([nH]5)c(-c5c(F)c(F)c(S[C@@H]6O[C@H](CO)[C@@H](O)[C@H](O)[C@H]6O)c(F)c5F)c5nc(c(-c6c(F)c(F)c(S[C@@H]7O[C@H](CO)[C@@H](O)[C@H](O)[C@H]7O)c(F)c6F)c6ccc3[nH]6)C=C5)C=C4)c(F)c2F)[C@H](O)[C@@H](O)[C@@H]1O [Compound 25, TPP F4(p-S-β-GluOH)4] | > 10 | > 10 | 4 | > 10 | Photocytotoxicity HT 29, concentration giving 50% [1]: inactive; Cytotoxicity L-1210 (no light), % at 10 μg/ml (L-1210 cells; 10 μg/ml): 18% 10 μg/ml; Photocytotoxicity RBY-79, concentration giving 50% [2]: inactive
O[C@@H]1[C@@H](O)[C@H](Sc2c(F)c(F)c(-c3c4nc(c(-c5c(F)c(F)c(S[C@@H]6OC[C@@H](O)[C@H](O)[C@H]6O)c(F)c5F)c5ccc([nH]5)c(-c5c(F)c(F)c(S[C@@H]6OC[C@@H](O)[C@H](O)[C@H]6O)c(F)c5F)c5nc(c(-c6c(F)c(F)c(S[C@@H]7OC[C@@H](O)[C@H](O)[C@H]7O)c(F)c6F)c6ccc3[nH]6)C=C5)C=C4)c(F)c2F)OC[C@H]1O [Compound 27, TPP F4(p-S-β-XylOH)4] | 5 | > 10 | 1 |  | Photocytotoxicity HT 29, concentration giving 50% [1]: 7.5 µg/mL; Cytotoxicity L-1210 (no light), concentration giving 50% (L-1210 cells): 14 µg/mL; Photocytotoxicity RBY-79, concentration giving 50% [2]: 50% 1.6 μg/ml; Y79 IC50 (μM) without light ([2]; without light (cytotoxic activity)): Inactive for μM
O[C@@H]1[C@@H](O)[C@H](Sc2c(F)c(F)c(-c3c4nc(c(-c5c(F)c(F)c(S[C@@H]6OC[C@@H](O)[C@H](O)[C@H]6O)c(F)c5F)c5ccc([nH]5)c(-c5c(F)c(F)c(S[C@@H]6OC[C@@H](O)[C@H](O)[C@H]6O)c(F)c5F)c5nc(c(-c6c(F)c(F)c(F)c(F)c6F)c6ccc3[nH]6)C=C5)C=C4)c(F)c2F)OC[C@H]1O [Compound 28, TPP F4(p-S-β-XylOH)3] | 2.6 | > 10 | 1.2 | > 10 | Photocytotoxicity HT 29, concentration giving 50% [1]: 50% 3.7 μg/ml; Cytotoxicity L-1210 (no light), concentration giving 50% (L-1210 cells): 50% 9 μg/ml; Photocytotoxicity RBY-79, concentration giving 50% [2]: 1.7 µg/mL
OC[C@H]1O[C@H](Sc2c(F)c(F)c(-c3c4nc(c(-c5c(F)c(F)c(S[C@H]6O[C@H](CO)[C@@H](O)[C@H](O)[C@@H]6O)c(F)c5F)c5ccc([nH]5)c(-c5c(F)c(F)c(S[C@H]6O[C@H](CO)[C@@H](O)[C@H](O)[C@@H]6O)c(F)c5F)c5nc(c(-c6c(F)c(F)c(S[C@H]7O[C@H](CO)[C@@H](O)[C@H](O)[C@@H]7O)c(F)c6F)c6ccc3[nH]6)C=C5)C=C4)c(F)c2F)[C@@H](O)[C@@H](O)[C@@H]1O [Compound 29, TPP F4(p-S-α-MannOH)4] | 2.4 | > 10 | 3.3 | > 10 | 
OC[C@H]1O[C@H](Sc2c(F)c(F)c(/C3=c4\cc/c([nH]4)=C(\c4c(F)c(F)c(F)c(F)c4F)C4=NC(C=C4)[C@@H](c4c(F)c(F)c(F)c(F)c4F)c4ccc([nH]4)/C(c4c(F)c(F)c(S[C@H]5O[C@H](CO)[C@@H](O)[C@H](O)[C@@H]5O)c(F)c4F)=C4/C=CC3=N4)c(F)c2F)[C@@H](O)[C@@H](O)C1O (stereo partly shown) [Compound 31] |  |  |  |  | Photocytotoxicity RBY-79, % at 2 μg/ml [2]: 80% 2 μg/ml
OC[C@H]1O[C@H](Sc2c(F)c(F)c(-c3c4nc(c(-c5c(F)c(F)c(S[C@H]6O[C@H](CO)[C@@H](O)[C@H](O)[C@@H]6O)c(F)c5F)c5ccc([nH]5)c(-c5c(F)c(F)c(S[C@H]6O[C@H](CO)[C@@H](O)[C@H](O)[C@@H]6O)c(F)c5F)c5nc(c(-c6c(F)c(F)c(F)c(F)c6F)c6ccc3[nH]6)C=C5)C=C4)c(F)c2F)[C@@H](O)[C@@H](O)[C@@H]1O [Compound 33, TPP F4(p-S-α-MannOH)3] | 1.7 | > 10 | 2.7 | > 10 | Photocytotoxicity RBY-79, % at 2 μg/ml [2]: 90% 2 μg/ml
OC[C@H]1O[C@H](SCCOCCOCCOc2ccc(-c3c4nc(c(-c5ccc(OCCOCCOCCS[C@H]6O[C@H](CO)[C@@H](O)[C@H](O)[C@@H]6O)cc5)c5ccc([nH]5)c(-c5ccc(OCCOCCOCCS[C@H]6O[C@H](CO)[C@@H](O)[C@H](O)[C@@H]6O)cc5)c5nc(c(-c6ccccc6)c6ccc3[nH]6)C=C5)C=C4)cc2)[C@@H](O)[C@@H](O)[C@@H]1O [Compound 74, 5,10,15-tri(para-10-S-α-D-thiomanosyloxy-O-triethylene glycoloxyphenyl)-20-phenylporphyrin] | 4.8 | 10.5 | 0.5 ± 0.3 | 11 ± 5 | 
OC[C@H]1O[C@@H](Oc2ccc(-c3c4nc(c(-c5ccc(O[C@@H]6O[C@H](CO)[C@@H](O)[C@H](O)[C@H]6O)cc5)c5ccc([nH]5)c(-c5ccc(O[C@@H]6O[C@H](CO)[C@@H](O)[C@H](O)[C@H]6O)cc5)c5nc(c(-c6ccccc6)c6ccc3[nH]6)C=C5)C=C4)cc2)[C@H](O)[C@@H](O)[C@@H]1O [TPP(p-O-β-GluOH)3, reference compound] | 1.5 ± 0.2 | > 15 | 0.9 | > 15 | 
OC[C@H]1O[C@@H](Oc2ccc(-c3c4nc(c(-c5ccc(O[C@@H]6O[C@H](CO)[C@@H](O)[C@H](O)[C@H]6O)cc5)c5ccc([nH]5)c(-c5ccc(O[C@@H]6O[C@H](CO)[C@@H](O)[C@H](O)[C@H]6O)cc5)c5nc(c(-c6ccc(O[C@@H]7O[C@H](CO)[C@@H](O)[C@H](O)[C@H]7O)cc6)c6ccc3[nH]6)C=C5)C=C4)cc2)[C@H](O)[C@@H](O)[C@@H]1O [TPP(p-O-β-GluOH)4, reference compound] | > 10 | > 10 | 5.2 ± 4 | 7 ± 4 | 
Oc1ccc(-c2c3nc(c(-c4ccc(O)cc4)c4ccc([nH]4)c(-c4ccc(O)cc4)c4nc(c(-c5ccccc5)c5ccc2[nH]5)C=C4)C=C3)cc1 [TPP(p-OH)3, reference compound] | 1.65 ± 0.07 | > 15 | 1.8 ± 0.1 | > 10 | 
Oc1ccc(-c2c3nc(c(-c4ccc(O)cc4)c4ccc([nH]4)c(-c4ccc(O)cc4)c4nc(c(-c5ccc(O)cc5)c5ccc2[nH]5)C=C4)C=C3)cc1 [TPP(p-OH)4, reference compound] | 0.8 ± 1 | 7.75 ± 3 | 0.3 | 4.7 ± 2.5 | cytotoxic for HT29 (in words) [1]: cytotoxic; cytotoxic for Y79 (in words) [2]: cytotoxic
Oc1cccc(-c2c3nc(c(-c4cccc(O)c4)c4ccc([nH]4)c(-c4cccc(O)c4)c4nc(c(-c5cccc(O)c5)c5ccc2[nH]5)CC4)C=C3)c1 [m-THPC, reference compound] |  |  |  |  | IC50 ([1]; Homo sapiens, HT-29, light or radiation study, 10 min, read-out: HT 29 IC50 (μM) with 2J/cm^2): 0.8 ± 0.3 µM; IC50 ([1]; Homo sapiens, HT-29, read-out: HT 29 IC50 (μM) without light): > 10 µM; cytotoxic for HT29 (in words) [1]: cytotoxic; IC50 ([2]; Homo sapiens, Y79, light or radiation study, 10 min, read-out: Y79 IC50 (μM) With 2J/cm^2): 0.6 ± 0.03 µM; IC50 ([2]; Homo sapiens, Y79, read-out: Y79 IC50 (μM) without light): > 10 µM; cytotoxic for Y79 (in words) [2]: cytotoxic
TPPF4(p-O-β-GluOH)4 [Compound 63] | > 10 | > 10 | > 10 | > 10 | Photocytotoxicity RBY-79, % at 10 μg/ml white light ([2]; 10 μg/ml, white light): 37%
